Test results reported in article PMC11960969, “Mdga2 deficiency leads to an aberrant activation of BDNF/TrkB signaling that underlies autism-relevant synaptic and behavioral changes in mice” (PLOS Biology, 2025).

Legend:
ASD animal models = settings: VRK3-deficient mice and D2-deficient mice with early-life stress; cited from earlier work
TrkB = test: Biotin pull-down of TrkB after intrahippocampal injection of biotin-peptides; assay type: in vivo; settings: 1 μg biotin-conjugated peptide bilaterally into mouse hippocampus, 24 h
TrkB signaling pathway = test: Immunoblotting of TrkB signaling in hippocampal neurons treated with NLGN1 siRNA; assay type: cell-based, mouse; settings: NLGN1 knockdown in MDGA2-deficient hippocampal neurons, n = 4
Source text: NLGN1-targeting siRNA and scrambled control siRNA were synthesized by GenePharma (Shanghai, China). The sequences were as follows: NLGN1 siRNA sense: 5′-[…]-[…]-3′, NLGN1 siRNA antisense: 5′-[…]-3′. Scrambled control siRNA sense: 5′-[…]-3′, Scrambled control siRNA antisense: 5′-[…]-3′
Plasmids were transfected into HEK293T, SH-SY5Y, and HeLa cells using Turbofect transfection reagent (ThermoFisher), following the manufacturer’s instructions. Primary neurons were transfected with plasmids using Lipofectamine LTX (ThermoFisher, Cat# 15338100) or EntransterTM-H4000 transfection reagent (Engreen Bio-system, Cat# 4000-6), and with siRNAs using Lipofectamine RNAiMAX (ThermoFisher, Cat# 13778100), following manufacturers’ protocols. The transfection efficiency of both Lipofectamine LTX and EntransterTM-H4000 exceeded 50%. […]
Supplementary file pbio.3003047.s003.tif: S3 Fig MDGA2 competes with brain-derived neurotrophic factor (BDNF) for tyrosine kinase B (TrkB) binding. […] The pTyr levels were quantified by densitometry, normalized to total TrkB levels, and then compared to those of WT littermates. n = 4 per group. […] Immunoprecipitated BDNF levels in Het samples were quantified by densitometry, normalized to input levels, and compared to WT controls (set to one arbitrary units). n = 4 per group. […]

Molecule: O=c1cc(-c2ccccc2)oc2c(O)c(O)ccc12 [7.8-dihydroxyflavone, reference compound]
- social deficits and repetitive self-grooming behavior (ASD animal models): rescued both social deficits and repetitive self-grooming behavior

Molecule: NADRSGSKEGFYMYIETSRPRLEGE [MDGA2-P1, peptide of MDGA2 MAM domain, aa 787–811, biotin-labeled]
- binding to TrkB in vivo (biotin pull-down) (TrkB): not P1, bound to TrkB in vivo

Molecule: NLGN1 siRNA: NLGN1-targeting siRNA, sense 5′-CCUGUGUGGU-UCACUAAUATT-3′ (sense CCUGUGUGGUUCACUAAUATT; antisense UAUUAGUGAACCACACAGGTT; chemistry not given here)
- effect on TrkB signaling pathway (TrkB signaling pathway): treated with either vehicle or NLGN1 siRNA
